Measurements reported in ChEMBL document CHEMBL2417377, “Hit-to-lead optimization and kinase selectivity of imidazo[1,2-a]quinoxalin-4-amine derived JNK1 inhibitors” (Bioorg Med Chem Lett, 2013).

Columns and labels:
Conditions in all cases: PC-3
[1] = biological target: SRSF protein kinase 2 (Homo sapiens) (UniProt P78362); test: Inhibition of SRPK2 in human PC3 cell lysates at 10 uM using desthiobiotin-tagged ATP probe AX9989 followed by trypsinization by LC/MS analysis
[2] = biological target: Mitogen-activated protein kinase 3 (Homo sapiens) (UniProt P27361); test: Inhibition of Erk1 in human PC3 cell lysates at 10 uM using desthiobiotin-tagged ATP probe AX9989 followed by trypsinization by LC/MS analysis
[3] = biological target: T1, Serine/threonine-protein kinase 3 (Homo sapiens) (UniProt Q13188); test: Inhibition of MST2 in human PC3 cell lysates at 10 uM using desthiobiotin-tagged ATP probe AX9989 followed by trypsinization by LC/MS analysis
T1 sequence (whole entry): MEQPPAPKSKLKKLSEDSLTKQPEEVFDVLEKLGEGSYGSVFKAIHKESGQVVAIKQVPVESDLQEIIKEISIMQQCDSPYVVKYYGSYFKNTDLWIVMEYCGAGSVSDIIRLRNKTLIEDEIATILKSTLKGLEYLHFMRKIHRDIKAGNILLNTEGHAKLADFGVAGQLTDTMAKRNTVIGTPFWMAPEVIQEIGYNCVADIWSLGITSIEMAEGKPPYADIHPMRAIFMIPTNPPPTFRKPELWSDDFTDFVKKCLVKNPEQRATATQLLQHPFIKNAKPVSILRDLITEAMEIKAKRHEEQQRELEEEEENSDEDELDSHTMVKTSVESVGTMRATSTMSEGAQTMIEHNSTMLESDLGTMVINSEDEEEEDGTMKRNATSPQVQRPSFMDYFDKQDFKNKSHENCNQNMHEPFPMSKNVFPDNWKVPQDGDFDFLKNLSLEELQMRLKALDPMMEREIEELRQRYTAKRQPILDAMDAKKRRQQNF

[4] = biological target: Mitogen-activated protein kinase kinase kinase 20 (Homo sapiens) (UniProt Q9NYL2); test: Inhibition of ZAK in human PC3 cell lysates at 10 uM using desthiobiotin-tagged ATP probe AX9989 followed by trypsinization by LC/MS analysis
[5] = biological target: Dual specificity mitogen-activated protein kinase kinase 2 (Homo sapiens) (UniProt P36507); test: Inhibition of MAP2K2 in human PC3 cell lysates at 10 uM using desthiobiotin-tagged ATP probe AX9989 followed by trypsinization by LC/MS analysis
[6] = biological target: Tyrosine-protein kinase CSK (Homo sapiens) (UniProt P41240); test: Inhibition of CSK in human PC3 cell lysates at 10 uM using desthiobiotin-tagged ATP probe AX9989 followed by trypsinization by LC/MS analysis
[7] = biological target: T2, Serine/threonine-protein kinase TAO1 (Homo sapiens) (UniProt Q7L7X3); test: Inhibition of TAO1 in human PC3 cell lysates at 10 uM using desthiobiotin-tagged ATP probe AX9989 followed by trypsinization by LC/MS analysis
T2 sequence (whole entry): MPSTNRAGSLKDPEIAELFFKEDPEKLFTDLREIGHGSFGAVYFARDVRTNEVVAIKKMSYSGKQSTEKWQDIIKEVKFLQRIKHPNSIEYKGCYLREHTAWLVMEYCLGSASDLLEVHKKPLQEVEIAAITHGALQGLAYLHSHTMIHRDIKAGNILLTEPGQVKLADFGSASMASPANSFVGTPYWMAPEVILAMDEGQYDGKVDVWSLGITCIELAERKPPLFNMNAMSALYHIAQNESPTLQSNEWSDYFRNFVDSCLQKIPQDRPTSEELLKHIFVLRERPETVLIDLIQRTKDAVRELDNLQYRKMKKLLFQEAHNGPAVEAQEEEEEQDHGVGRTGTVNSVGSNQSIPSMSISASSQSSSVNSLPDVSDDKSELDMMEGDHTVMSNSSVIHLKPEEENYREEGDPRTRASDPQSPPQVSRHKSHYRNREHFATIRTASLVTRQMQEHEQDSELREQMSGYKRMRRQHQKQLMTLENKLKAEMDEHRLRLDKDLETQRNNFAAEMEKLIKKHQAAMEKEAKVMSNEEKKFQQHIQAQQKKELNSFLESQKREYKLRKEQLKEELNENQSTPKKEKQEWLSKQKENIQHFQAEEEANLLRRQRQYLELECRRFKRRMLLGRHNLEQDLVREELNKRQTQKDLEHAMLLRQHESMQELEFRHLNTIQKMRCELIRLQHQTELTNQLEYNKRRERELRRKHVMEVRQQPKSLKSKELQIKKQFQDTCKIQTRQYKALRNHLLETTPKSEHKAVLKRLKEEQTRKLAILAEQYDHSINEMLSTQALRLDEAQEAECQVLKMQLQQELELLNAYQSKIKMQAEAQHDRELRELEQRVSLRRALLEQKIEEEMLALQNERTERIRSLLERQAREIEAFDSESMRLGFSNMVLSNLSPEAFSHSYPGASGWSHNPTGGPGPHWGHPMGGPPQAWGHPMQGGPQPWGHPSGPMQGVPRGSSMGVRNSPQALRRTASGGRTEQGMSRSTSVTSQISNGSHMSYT

Sequence of Dual specificity mitogen-activated protein kinase kinase 2 (Homo sapiens) (P36507 whole entry): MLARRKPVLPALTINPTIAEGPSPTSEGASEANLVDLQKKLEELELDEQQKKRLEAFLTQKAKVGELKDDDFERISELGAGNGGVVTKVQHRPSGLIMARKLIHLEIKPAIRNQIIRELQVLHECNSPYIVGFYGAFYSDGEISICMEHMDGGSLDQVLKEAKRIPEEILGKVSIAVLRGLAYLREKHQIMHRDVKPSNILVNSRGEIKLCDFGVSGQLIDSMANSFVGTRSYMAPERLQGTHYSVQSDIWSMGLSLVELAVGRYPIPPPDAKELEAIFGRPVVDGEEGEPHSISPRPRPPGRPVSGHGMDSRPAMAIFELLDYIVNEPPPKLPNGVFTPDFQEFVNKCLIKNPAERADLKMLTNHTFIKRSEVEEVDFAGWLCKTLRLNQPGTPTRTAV
Sequence of SRSF protein kinase 2 (Homo sapiens) (P78362 whole entry, looked up): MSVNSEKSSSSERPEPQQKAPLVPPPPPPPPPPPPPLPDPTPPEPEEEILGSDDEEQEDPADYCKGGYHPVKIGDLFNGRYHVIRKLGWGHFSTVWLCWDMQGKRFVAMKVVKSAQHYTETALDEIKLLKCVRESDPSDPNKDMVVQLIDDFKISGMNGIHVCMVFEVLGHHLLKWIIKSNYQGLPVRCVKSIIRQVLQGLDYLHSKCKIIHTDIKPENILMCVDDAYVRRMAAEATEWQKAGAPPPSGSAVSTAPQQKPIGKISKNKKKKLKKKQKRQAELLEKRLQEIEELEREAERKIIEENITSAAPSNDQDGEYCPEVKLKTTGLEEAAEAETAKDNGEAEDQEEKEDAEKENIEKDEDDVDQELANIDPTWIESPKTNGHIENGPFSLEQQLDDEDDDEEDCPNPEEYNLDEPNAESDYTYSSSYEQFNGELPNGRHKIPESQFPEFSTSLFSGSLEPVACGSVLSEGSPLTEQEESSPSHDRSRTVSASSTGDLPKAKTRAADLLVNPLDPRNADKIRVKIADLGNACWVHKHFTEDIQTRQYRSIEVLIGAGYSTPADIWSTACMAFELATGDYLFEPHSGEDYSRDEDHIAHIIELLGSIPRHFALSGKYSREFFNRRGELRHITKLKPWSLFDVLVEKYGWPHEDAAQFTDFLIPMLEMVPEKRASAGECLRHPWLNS
Sequence of Tyrosine-protein kinase CSK (Homo sapiens) (P41240 2-450 limits assumed): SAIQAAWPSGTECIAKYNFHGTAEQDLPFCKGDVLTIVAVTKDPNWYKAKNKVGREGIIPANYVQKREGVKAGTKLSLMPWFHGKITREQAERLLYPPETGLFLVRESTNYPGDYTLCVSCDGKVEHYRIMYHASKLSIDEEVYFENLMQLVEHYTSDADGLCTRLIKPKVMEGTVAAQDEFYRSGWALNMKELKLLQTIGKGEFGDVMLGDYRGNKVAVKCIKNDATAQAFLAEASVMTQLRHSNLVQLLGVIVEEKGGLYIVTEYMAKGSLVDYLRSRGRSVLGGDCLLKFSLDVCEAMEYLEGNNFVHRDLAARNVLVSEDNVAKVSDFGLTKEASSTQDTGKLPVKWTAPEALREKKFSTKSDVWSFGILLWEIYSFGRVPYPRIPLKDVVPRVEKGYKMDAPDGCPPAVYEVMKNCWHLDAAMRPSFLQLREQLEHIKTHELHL
Sequence of Mitogen-activated protein kinase 3 (Homo sapiens) (P27361 whole entry): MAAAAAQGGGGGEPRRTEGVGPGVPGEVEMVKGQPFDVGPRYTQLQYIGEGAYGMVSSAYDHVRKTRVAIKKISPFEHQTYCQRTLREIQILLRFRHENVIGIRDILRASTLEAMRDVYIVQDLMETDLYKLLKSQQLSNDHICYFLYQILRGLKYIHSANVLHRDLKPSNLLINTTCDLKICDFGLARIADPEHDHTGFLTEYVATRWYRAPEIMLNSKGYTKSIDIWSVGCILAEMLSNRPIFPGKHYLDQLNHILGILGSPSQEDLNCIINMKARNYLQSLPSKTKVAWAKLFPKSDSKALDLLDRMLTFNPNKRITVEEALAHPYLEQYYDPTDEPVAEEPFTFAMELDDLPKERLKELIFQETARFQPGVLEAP
Sequence of Mitogen-activated protein kinase kinase kinase 20 (Homo sapiens) (Q9NYL2 2-800 limits assumed): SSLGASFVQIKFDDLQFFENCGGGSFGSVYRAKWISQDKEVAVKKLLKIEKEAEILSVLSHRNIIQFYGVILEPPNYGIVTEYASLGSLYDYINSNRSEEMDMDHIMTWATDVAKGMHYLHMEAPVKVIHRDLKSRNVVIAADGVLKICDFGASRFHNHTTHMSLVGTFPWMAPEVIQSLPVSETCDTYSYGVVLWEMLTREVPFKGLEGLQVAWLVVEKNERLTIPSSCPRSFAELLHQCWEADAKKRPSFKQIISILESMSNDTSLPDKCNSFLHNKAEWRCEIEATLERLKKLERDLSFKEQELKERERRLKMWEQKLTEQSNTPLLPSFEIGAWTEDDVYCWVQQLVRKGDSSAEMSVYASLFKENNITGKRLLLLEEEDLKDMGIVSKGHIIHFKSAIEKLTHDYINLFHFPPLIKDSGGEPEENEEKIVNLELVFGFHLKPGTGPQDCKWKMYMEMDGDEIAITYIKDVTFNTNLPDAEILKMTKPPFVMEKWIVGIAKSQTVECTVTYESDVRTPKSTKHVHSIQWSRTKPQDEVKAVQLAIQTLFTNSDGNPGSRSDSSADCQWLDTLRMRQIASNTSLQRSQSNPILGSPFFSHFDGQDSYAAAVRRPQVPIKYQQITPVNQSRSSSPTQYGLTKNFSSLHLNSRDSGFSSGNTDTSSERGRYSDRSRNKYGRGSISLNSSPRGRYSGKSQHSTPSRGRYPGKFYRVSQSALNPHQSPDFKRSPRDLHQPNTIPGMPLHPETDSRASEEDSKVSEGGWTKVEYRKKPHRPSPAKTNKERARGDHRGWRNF

SMILES | inhibition [1] | inhibition [2] | inhibition [3] | inhibition [4] | inhibition [5] | inhibition [6] | inhibition [7]
CCC[C@@H](NC(=O)c1ccc2nc(N[C@H]3CC[C@H](O)CC3)c3nccn3c2c1)c1ccccc1 | < 35% | < 35% | < 35% | < 35% | < 35% | < 35% | < 35%
NC(=O)c1ccc2nc(N[C@H]3CC[C@H](O)CC3)c3nccn3c2c1 | < 35% | < 35% | < 35% | < 35% | < 35% | < 35% | < 35%
C[C@H](NC(=O)c1ccc2nc(N[C@H]3CC[C@H](O)CC3)c3nccn3c2c1)c1ccccc1 | < 35% | < 35% | < 35% | < 35% | < 35% | < 35% | < 35%
CC[C@@H](NC(=O)c1ccc2nc(N[C@H]3CC[C@H](O)CC3)c3nccn3c2c1)c1ccccc1 | < 35% | < 35% | < 35% | < 35% | < 35% | < 35% | < 35%
CC(C)(NC(=O)c1ccc2nc(N[C@H]3CC[C@H](O)CC3)c3nccn3c2c1)c1ccccc1 | < 35% | < 35% | < 35% | < 35% | < 35% | < 35% | < 35%
C[C@@H](NC(=O)c1ccc2nc(N[C@H]3CC[C@H](O)CC3)c3nccn3c2c1)c1ccccc1 | < 35% | < 35% | < 35% | < 35% | < 35% | < 35% | < 35%
O=C(N[C@H](CO)c1ccccc1)c1ccc2nc(N[C@H]3CC[C@H](O)CC3)c3nccn3c2c1 | < 35% | < 35% | < 35% | < 35% | < 35% | < 35% | < 35%

Next, values leading:

inhibition [1] | inhibition [2] | inhibition [3] | inhibition [4] | inhibition [5] | inhibition [6] | inhibition [7] | SMILES
< 35% | < 35% | < 35% | < 35% | < 35% | < 35% | < 35% | O=C(NC1(c2ccccc2)CC1)c1ccc2nc(N[C@H]3CC[C@H](O)CC3)c3nccn3c2c1
< 35% | < 35% | < 35% | < 35% | < 35% | < 35% | < 35% | O=C(O)c1ccc2nc(N[C@H]3CC[C@H](O)CC3)c3nccn3c2c1
< 35% | < 35% | < 35% | < 35% | < 35% | < 35% | < 35% | O=C(NC1(c2ccccc2)CCC1)c1ccc2nc(N[C@H]3CC[C@H](O)CC3)c3nccn3c2c1
< 35% | < 35% | < 35% | < 35% | < 35% | < 35% | < 35% | O=C(NC1(c2ccc(F)cc2)CC1)c1ccc2nc(N[C@H]3CC[C@H](O)CC3)c3nccn3c2c1
< 35% | < 35% | < 35% | < 35% | < 35% | < 35% | < 35% | O=C(NC1(Cc2ccc(F)cc2)CC1)c1ccc2nc(N[C@H]3CC[C@H](O)CC3)c3nccn3c2c1
